# System: Staphylococcus aureus
# Assay: Destruction of S. aureus cultures by aqueous chlorine dioxide solutions (plate counts)
# Assay type: cell-based
# Description: In this test, S. aureus cells were suspended in Butterfield's phosphate buffer diluent with a pH of 7.2. The density of each of these robust collections of S. aureus suspensions was approximately 10^7 colony-forming-units per mL (10^7 CFU/mL). […] Cell counts were made on samples recovered on Baird-Parker Agar with EY-Tellurite and incubated at 35° C. for 48 hours. […] In these test results, S. aureus survival was detected only at the most dilute chlorine dioxide solutions (0.044 ppm). […] This observation is consistent with lethality of chemical agents for destroying microorganisms being the mathematical product of the concentration of the lethal agent (C) and the time (t) of exposure, (C×t).
smiles,measurement,setting,value
[O][Cl+][O-] [chlorine dioxide],inactivation of the pathogens,"0.044 ppm chlorine dioxide solution, exposure 24 hours",100%
same,survivors,"[ClO2] 0.044 ppm, 30° C., 3-5 min exposure",3.4% survivors
same,CFU/mL × 10^−6,"[ClO2] 0.044 ppm, 30° C., 3-5 min exposure, control 3.4",0.116 CFU/mL × 10^−6
same,CFU/mL × 10^−6,"[ClO2] 0.044 ppm, exposure for 24 h",0.00 CFU/mL × 10^−6
same,CFU/mL × 10^−6,"[ClO2] 0.044 ppm, exposure over night",<1.0 × 10^−4 CFU/mL × 10^−6
same,CFU/mL × 10^−6,"[ClO2] 0.44 ppm, 30° C., 3-5 min exposure, control 9.55",0 CFU/mL × 10^−6
same,CFU/mL × 10^−6,"[ClO2] 4.4 ppm, 30° C., 3-5 min exposure, control 3.4",0.00 CFU/mL × 10^−6
same,CFU/mL × 10^−6,"[ClO2] 44 ppm, 30° C., 3-5 min exposure, control 9.55",0.00 CFU/mL × 10^−6

# From patent publication US20100086623A1, “Chemical Combination for the Generation of Disinfectant and Heat” (priority 2004, published 2010)
